Assay results as given in article PMC3761967 (Bioorganic & medicinal chemistry, 2012).
pIC50: −log10 of the molar value. Each block holds one compound with its values, some of them ahead of it. Where no end group is shown, it is not given here. The star is where a group is joined. Dansyl = CN(C)c1cccc2c(S(=O)(=O)*)cccc12

What was measured:
[1] = test system: PBP1b (penicillin-binding protein 1b); conditions: cited from earlier work
rubber transferase = rubber transferase from Hevea Brasiliensis; cited from earlier work
Ha-Ras = conditions: murine ischemic stroke model; cited from earlier work
recombinant human FTase = conditions: cited from earlier work
Ras/ERK1/2 pathway = conditions: rats; cited from earlier work
[2] = test system: membrane-bound Ha-Ras / Ki-Ras; conditions: cited from earlier work
tobacco BY-2 cells = conditions: cited from earlier work
[3] = test system: Ras processing in ras-transformed NIH3T3; conditions: cited from earlier work
[4] = mild basic conditions (pH=7.5), hydrolysed to dicarboxylate anion 2; ref 10a; cited from earlier work
yeast FTase = biological target: T1, yeast FTase (Saccharomyces cerevisiae, UniProt P22007+P29703); assay: Yeast FTase continuous fluorescence assay; assay type: biochemical; conditions: yeast FTase IC50, 27 vs 2
T1 sequence (P29703 1-316): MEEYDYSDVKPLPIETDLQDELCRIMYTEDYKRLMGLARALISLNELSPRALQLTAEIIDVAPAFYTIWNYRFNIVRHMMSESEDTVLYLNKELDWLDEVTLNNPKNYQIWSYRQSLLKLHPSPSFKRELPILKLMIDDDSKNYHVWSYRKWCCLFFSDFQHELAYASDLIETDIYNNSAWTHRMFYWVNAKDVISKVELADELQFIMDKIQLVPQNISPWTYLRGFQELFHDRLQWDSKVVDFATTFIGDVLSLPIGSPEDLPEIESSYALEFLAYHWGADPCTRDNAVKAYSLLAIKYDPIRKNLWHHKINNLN
T1 sequence (P22007 1-431): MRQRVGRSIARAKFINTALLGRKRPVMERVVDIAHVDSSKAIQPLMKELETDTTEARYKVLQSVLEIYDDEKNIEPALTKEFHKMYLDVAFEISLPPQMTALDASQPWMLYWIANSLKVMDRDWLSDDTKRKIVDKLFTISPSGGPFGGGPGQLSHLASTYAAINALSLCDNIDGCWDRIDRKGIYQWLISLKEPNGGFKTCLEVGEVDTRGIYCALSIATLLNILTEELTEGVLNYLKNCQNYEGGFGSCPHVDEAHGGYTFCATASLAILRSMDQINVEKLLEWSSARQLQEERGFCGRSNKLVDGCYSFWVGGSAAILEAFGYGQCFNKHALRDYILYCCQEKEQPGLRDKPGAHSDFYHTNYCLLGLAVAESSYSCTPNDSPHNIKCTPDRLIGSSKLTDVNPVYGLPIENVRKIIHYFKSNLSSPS

wild FTase = conditions: peptide substrate; cited from earlier work

Compound: CCCCCCCCCCCCCC/C(C(=O)O)=C(\C)C(=O)O [compound 1, chaetomellic acid A]
Reduction of PBP1b activity [1]: modest potency
Inhibition of rubber biosynthesis in vitro (rubber transferase): able to inhibit
Production of superoxide anion and volume of cerebral necrotic tissue (Ha-Ras): significantly reducing
Mode of FTase inhibition towards the acceptor peptide Ras (recombinant human FTase; diacid anion of 1): noncompetitive
Mode of FTase inhibition with respect to farnesyl pyrophosphate (FPP) (recombinant human FTase; diacid anion of 1): highly competitive
Effect on acute ischemia-reperfusion injury (renal function and histology) (Ras/ERK1/2 pathway): beneficial effect
Effect on membrane-bound Ha-Ras [2]: selectively inhibited
Effect on membrane-bound Ki-Ras [2]: did not alter
Effect on cell cycle progression (tobacco BY-2 cells): specific arrest in the cell cycle
Inhibition of Ras processing [3]: did not inhibit

Compound: CCCCCCCCCCCCCC/C(C(=O)O)=C(\C)C(=O)O [compound 2]
pIC50 (recombinant human FTase; read-out: IC50 recombinant human FTase, dianionic form): 7.26

Compound: CCCCCCCCCCCCCCC1=C(C)C(=O)OC1=O [compound 3, chaetomellic anhydride A]
Stability of the cyclic (anhydride) form [4]: unstable

times more potent than ACA (yeast FTase): approximately 5
Compound: CCCCSCCCCCCCCC/C(C(=O)[O-])=C(\C)C(=O)[O-].[Na+].[Na+] [compound 27, disodium salt of 2-(9-(butylthio)nonyl)-3-methylmaleic acid]

Compound: dansyl-Gly-Cys-Val-Ile-Ala (Dansyl-GCVIA)
kcat (wild FTase): > 0.2 s⁻¹

Compound: dansyl-Gly-Cys-Val-Leu-Ser (Dansyl-GCVLS)
kcat (wild FTase): 0.4 s⁻¹
